Source: patent US11866405B2, “Substituted indazoles as IRAK4 inhibitors” (AstraZeneca AB, priority 2020, dated 2024)
Where two headings read alike, the source gives them in different places.

Assays:
[1] = target: human recombinant IRAK4 protein (Homo sapiens (Human), UniProt Q9NWZ3); assay: IRAK4 enzyme assay (mass spectrometry readout); format: biochemical; conditions: 3 mM ATP, 0.2 nM enzyme; geometric mean of at least n=2, * single experiment
In short: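 0.2 nM IRAK4 preincubated 15 min at room temperature with compound (10-point half-log series, top 1 μM or 10 μM) in pH 7.4 Tris buffer with 3 mM ATP; 10 μM peptide substrate added, 2 h at room temperature, formic acid stop. Phospho/unphospho peptide ratio by LC-MS/MS; potency from curve fit, geometric mean of n≥2 or single run.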

[2] = test system: IL-1β stimulated IL-8 release in hTHP1 cells; assay: IL-1β-induced IL-8 release in human THP-1 monocyte cell line; format: cell-based; conditions: THP-1 cells, IL-1β 1.8 ng/mL
Method: Effect of IRAK4 Inhibitors on IL-1β-Induced Cytokine Release in Human THP-1 Monocyte Cell Line
THP-1 cells were cultured in RPMI 1640 (Gibco 72400-021) containing 10% FBS (Gibco 10270-106), 1 mM Na-pyruvate (Gibco 11360-070) and 100 U/mL Penicillin-Streptomycin (Gibco 15140-122). Cells were plated at 5×10^4 cells per well in 384 well Echo certified plates (Labcyte PPT-0200) to which compounds had been added at various concentrations (10 point half log dose response with a final top concentration of 10 μM) using an Echo 655 (Labcyte Inc). The plate was incubated for 1 h at 37° C., then recombinant […] (R&D Systems 201-LB-025/CF) was added to a final concentration of 1.8 ng/mL. The plates were incubated at 37° C. for 18h. The plates were centrifuged at 250×g for four minutes, then 1.6 μL of the cell supernatant was transferred to a white low volume 384 well plate (Greiner #784075) using acoustic dispensing on an Echo 655. Next, 200 nL of acceptor bead (5 mg/mL) and biotinylated anti-IL-8 antibody (500 nM) was added using acoustic dispensing (beads and antibody were from a PerkinElmer 18 Alpha LISA detection kit, AL224C). The plate was sealed, briefly centrifuged, then incubated at room temperature for 1 h. Afterwards, 200 nL of donor bead solution (5 mg/mL) was added, the plate sealed and briefly centrifuged, then incubated for 1 h before being read on an Envision plate reader to allow determination the concentration of IRAK4 inhibitor required to effect a 50% reduction in the amount of IL-8 released following IL-1β stimulation in THP1 cells (Table 2). The quantified data were analysed in Genedata Screener 15 (Genedata AG). Data presented are the geometric mean of at least n=2, or as denoted by an * are obtained from a single experiment.

[3] = target: IRAK4 auto-phosphorylation (Homo sapiens (Human), UniProt Q9NWZ3); assay: IRAK4 phosphorylation cell assay in IL-1β-stimulated Karpas-299 cells; format: cell-based; conditions: IL-1β 22.7 ng/mL, pIRAK4 (Thr345/Ser346), geometric mean of at least 2 experiments
In short: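 Karpas-299 cells were preincubated 1 h at 37 °C with compound (10-point half-log series, top 30 μM), then stimulated 10 min with 22.7 ng/mL IL-1β. Cells were fixed and stained for pIRAK4 (Thr345/Ser346), and per-cell fluorescence was quantified by high-content imaging. IC50 values are geometric means of at least 2 experiments.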

[4] = 18 h, geometric mean of at least n=2, * n = 1, read-out: hTHP1, IL1β stim, IL8 release red. IC50
[5] = Homo sapiens, THP-1, 18 h, geometric mean of at least n=2, * n = 1, read-out: hTHP1, IL1β stim, IL8 release red. IC50

Chain of IRAK4 auto-phosphorylation (Q9NWZ3 whole entry): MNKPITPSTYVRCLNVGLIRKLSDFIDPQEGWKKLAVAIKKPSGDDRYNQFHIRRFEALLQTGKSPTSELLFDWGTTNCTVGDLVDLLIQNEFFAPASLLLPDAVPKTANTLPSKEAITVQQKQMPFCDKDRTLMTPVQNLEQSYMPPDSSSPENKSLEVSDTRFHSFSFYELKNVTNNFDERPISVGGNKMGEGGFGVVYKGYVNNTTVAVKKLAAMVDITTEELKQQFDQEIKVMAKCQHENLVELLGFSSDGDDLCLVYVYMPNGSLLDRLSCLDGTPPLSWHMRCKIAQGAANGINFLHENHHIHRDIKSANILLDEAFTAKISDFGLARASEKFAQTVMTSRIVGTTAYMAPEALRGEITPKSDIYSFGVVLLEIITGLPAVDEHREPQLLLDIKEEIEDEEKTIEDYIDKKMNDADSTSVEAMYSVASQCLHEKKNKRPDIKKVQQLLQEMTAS
Chain of human recombinant IRAK4 protein (Q9NWZ3 whole entry): as above

IC50 [1] [nM] | IC50 [2, 4] [nM] | IC50 [3] [nM] | IC50 [2, 5] [nM] | Molecule
0.5 |  | 31 | 20 | CC(=O)N1CC2(CC[C@@H](n3cc4cc(C(=O)Nc5cnn6cccnc56)c(OC5CC5)cc4n3)[C@H](C)C2)C1 (single isomer, unassigned) [Example 29]
< 0.3 | 14 | 46 |  | CC(=O)N1CC2(CC[C@@H](n3cc4cc(C(=O)Nc5cnn6cccnc56)c(OC5CC5)cc4n3)[C@@H](C)C2)C1 (single isomer, unassigned) [Example 30]
0.8 | 32 | 71 |  | CC(=O)N1CC2(CC[C@@H](n3cc4cc(C(=O)Nc5cnn6cccnc56)c(OC5CC5)cc4n3)[C@@H](C)C2)C1 (single isomer, unassigned) [Example 31]
2 |  | 31 | 22 | COc1cc2nn([C@H]3CCC(N(C)C(C)=O)C[C@@H]3C)cc2cc1C(=O)Nc1cnc2cccnn12 (single isomer, unassigned) [Example 34, N-(imidazo[1,2-b]pyridazin-3-yl)-6-methoxy-2-((1S,2S,4R*)-2-methyl-4-(N-methylacetamido)cyclohexyl)-2H-indazole-5-carboxamide]
0.3 |  | 6 | 3 | COc1cc2nn([C@@H]3CCC(N(C)C(C)=O)C[C@H]3C)cc2cc1C(=O)Nc1cnc2cccnn12 (single isomer, unassigned) [Example 37, N-(imidazo[1,2-b]pyridazin-3-yl)-6-methoxy-2-(1R,2R,4R*)-2-methyl-4-(N-methylacetamido)cyclohexyl)-2H-indazole-5-carboxamide]
4.6 |  | 186 | 31 | COc1cc2nn([C@H]3CC[C@H](O)C[C@@H]3C)cc2cc1C(=O)Nc1cnn2cccnc12 (single isomer, unassigned) [Example 38]
1.2 |  | 70 | 46 | C[C@H]1C[C@@H](O)CC[C@@H]1n1cc2cc(C(=O)Nc3cnn4cccnc34)c(OC3CC3)cc2n1 (single isomer, unassigned) [Example 45]
< 0.5 | 18 | 38 |  | COc1cc2nn([C@@H]3CCC4(C[C@@H]3C)CN(C(C)=O)C4)cc2cc1C(=O)Nc1cnc2cccnn12 (single isomer, unassigned) [Example 64]
1.1 | 52 | 44 |  | COc1cc2nn([C@@H]3CCC4(C[C@@H]3C)CN(C(C)=O)C4)cc2cc1C(=O)Nc1cnc2cccnn12 (single isomer, unassigned) [Example 65]
< 0.5 | 18 | 23 |  | COc1cc2nn([C@@H]3CCC4(C[C@H]3C)CN(C(C)=O)C4)cc2cc1C(=O)Nc1cnc2cccnn12 (single isomer, unassigned) [Example 66]
4.3 | 91 | 144 |  | COc1cc2nn([C@@H]3CCC4(C[C@H]3C)CN(C(C)=O)C4)cc2cc1C(=O)Nc1cnc2cccnn12 (single isomer, unassigned) [Example 67]
1.5 |  | 28 | 70 | COc1cc2nn([C@H]3CC[C@H](O)[C@@H](C)C3)cc2cc1C(=O)Nc1cnc2cccnn12 (single isomer, unassigned) [Example 80]
1.4 | 23 | 19 |  | COc1cc2nn([C@H]3CC[C@H](N(C)C(C)=O)CC3)cc2cc1C(=O)Nc1cnn2cnccc12 [Example 25, 6-Methoxy-2-((1r,4r)-4-(N-methylacetamido)cyclohexyl)-N-(pyrazolo[1,5-c]pyrimidin-3-yl)-2H-indazole-5-carboxamide]
0.8 |  | 60 | 35 | O=C(Nc1cnn2cccnc12)c1cc2cn([C@H]3CC[C@H](O)CC3)nc2cc1OC1CC1 [Example 57, 6-Cyclopropoxy-2-((1r,4r)-4-hydroxycyclohexyl)-N-(pyrazolo[1,5-a]pyrimidin-3-yl)-2H-indazole-5-carboxamide]

Further lines, the molecule ahead of its results:

Molecule | IC50 [1] [nM] | IC50 [2, 4] [nM] | IC50 [3] [nM] | IC50 [2, 5] [nM]
6-Cyclopropoxy-2-((1r,4r)-4-(N-methylacetamido)cyclohexyl)-N-(pyrazolo[1,5-a]pyrimidin-3-yl)-2H-indazole-5-carboxamide [Example 33] | 1 | 30 | 45 | 
COc1cc2nn(C3CCC4(CC3)CC(C)(O)C4)cc2cc1C(=O)Nc1cnc2cccnn12 (single isomer, unassigned) [Example 5, 2-(2-Hydroxy-2-methylspiro[3.5]nonan-7-yl)-N-(imidazo[1,2-b]pyridazin-3-yl)-6-methoxy-2H-indazole-5-carboxamide] | 0.5 |  | 31 | 16
COc1cc2nn([C@H]3CCC[C@@H](O)C3)cc2cc1C(=O)Nc1cnc2cccnn12 (single isomer, unassigned) [Example 10] | 1.2 |  | 19 | 14
COc1cc2nn([C@H]3CCC[C@@H](O)C3)cc2cc1C(=O)Nc1cnn2cccnc12 (single isomer, unassigned) [Example 13] | 6.5 |  | 816 | 59
COc1cc2nn([C@H]3CCC[C@@H](O)C3)cc2cc1C(=O)Nc1cnn2cccnc12 (single isomer, unassigned) [Example 14] | 17.7 | 38 | 171 | 
O=C(Nc1cnn2cccnc12)c1cc2cn([C@H]3CCC[C@H](O)C3)nc2cc1OC1CC1 (single isomer, unassigned) [Example 19] | 1 |  | 47 | 35
O=C(Nc1cnn2cccnc12)c1cc2cn([C@H]3CCC[C@H](O)C3)nc2cc1OC1CC1 (single isomer, unassigned) [Example 20] | 0.7 | 31 | 35 | 
COc1cc2nn([C@H]3CC[C@@H](O)CC3)cc2cc1C(=O)Nc1cnc2cccnn12 [Example 7, 2-((1s,4s)-4-Hydroxycyclohexyl)-N-(imidazo[1,2-b]pyridazin-3-yl)-6-methoxy-2H-indazole-5-carboxamide] | 6 | 48 | 111 | 
COc1cc2nn([C@H]3CC[C@H](O)CC3)cc2cc1C(=O)Nc1cnc2cccnn12 [Example 8, 2-((1r,4r)-4-Hydroxycyclohexyl)-N-(imidazo[1,2-b]pyridazin-3-yl)-6-methoxy-2H-indazole-5-carboxamide] | 2.8 | 50 | 58 | 
O=C(Nc1cnn2cccnc12)c1cc2cn([C@@H]3CCC[C@H](O)C3)nc2cc1OC1CC1 [Example 17, 6-cyclopropoxy-2-((1R,3S)-3-hydroxycyclohexyl)-N-(pyrazolo[1,5-a]pyrimidin-3-yl)-2H-indazole-5-carboxamide] | 1 |  | 50 | 24
O=C(Nc1cnn2cccnc12)c1cc2cn([C@H]3CCC[C@@H](O)C3)nc2cc1OC1CC1 [Example 18] | < 0.6 | 21 | 19 | 
COc1cc2nn(C3CCC4(CC3)CN(C(C)=O)C4)cc2cc1C(=O)Nc1cnc2cccnn12 [Example 21, 2-(2-Acetyl-2-azaspiro[3.5]nonan-7-yl)-N-(imidazo[1,2-b]pyridazin-3-yl)-6-methoxy-2H-indazole-5-carboxamide] | 0.7 |  | 36 | 17
COc1cc2nn([C@H]3CC[C@H](N(C)C(C)=O)CC3)cc2cc1C(=O)Nc1cnc2cccnn12 [Example 23, N-(Imidazo[1,2-b]pyridazin-3-yl)-6-methoxy-2-((1r,4r)-4-(N-methylacetamido)cyclohexyl)-2H-indazole-5-carboxamide] | 0.2 |  | 5 | 7
